Legend:
Sprague Dawley rats = experiment: Continuous Slow Transvesicular Infusion (CSTI) rat model; type: in vivo; parameters: key: F: Produced an increase in bladder capacity in rats relative to baseline capacity; details: intragastric administration, bladder capacity relative to baseline capacity
Description: Male Sprague Dawley rats weighing approximately 300 g were used for the study. Rats were anaesthetized with pentobarbitone sodium (50 mg/kg, i.p). Through a median abdominal incision, bladder was exposed and a polyethylene cannula (PE 50) was introduced into the bladder through a small cut on the dome of the bladder and the cannula was secured with a purse string suture. The other end of the cannula was exteriorized subcutaneously at the dorsal neck area. Similarly, another cannula (PE 50) was introduced into the stomach through a paramedian abdominal incision with the free end exteriorized subcutaneously to the neck region. The surgical wounds were closed with silk 4-0 suture and the animal was allowed to recover with appropriate post surgical care. On the following day, the animal was placed in a rat restrainer. The open end of the bladder-cannula was connected to a pressure transducer as well as infusion pump through a three-way stopcock. The bladder voiding cycles were initiated by continuous infusion of normal saline at the rate of 100 μl/min. The repetitive voiding contractions were recorded on a Power Lab on-line data acquisition software. After recording the basal voiding pattern for an hour, the test drug or vehicle was administered directly into stomach through the intragastric catheter and the voiding cycles were monitored for 5 hours. Micturition pressure and frequency were calculated before and after the treatment (at every 30 min interval) for each animal. Bladder capacity was calculated from the micturition frequency, based on the constant infusion of 100 μl/min. The effect of the test drug was expressed as a percentage of basal, pre-drug bladder capacity. WAY 100635 was used as positive control for comparison.

rat MCH1 receptor = target: T1, rat MCH1 receptor (Rattus norvegicus, UniProt P97639); experiment: Radioligand binding assay at cloned rat MCH1 receptor ([3H]Compound A); details: cloned rat MCH1, Peakr293 cell membranes, 0.08 nM [3H]Compound A, 25° C., 90 minutes; read-out: Ki(MCH-1)
T1 construct: operatively linked to DNA encoding the rat MCH1 receptor so as to permit expression thereof; expressed in transfected cells; host or cells: Human embryonic kidney Peak rapid 293 (Peakr293) cells, transient calcium phosphate transfection, membranes
T1 sequence (P97639 whole entry): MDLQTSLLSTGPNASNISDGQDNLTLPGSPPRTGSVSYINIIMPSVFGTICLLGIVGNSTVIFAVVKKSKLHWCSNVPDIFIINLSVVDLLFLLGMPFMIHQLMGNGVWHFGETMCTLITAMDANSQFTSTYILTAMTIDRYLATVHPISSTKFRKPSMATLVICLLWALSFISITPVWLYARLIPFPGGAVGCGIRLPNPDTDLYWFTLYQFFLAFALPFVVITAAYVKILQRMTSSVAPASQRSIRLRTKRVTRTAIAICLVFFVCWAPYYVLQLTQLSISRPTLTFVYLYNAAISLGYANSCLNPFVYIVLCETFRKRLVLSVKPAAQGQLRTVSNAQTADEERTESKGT

[1] = in vivo; cited from earlier work

Structure (SMILES) | CSTI (Sprague Dawley rats) | Ki (rat MCH1 receptor) [nM] | food intake induced by the intracerebroventricular application of MCH [1]
CC(C)C(=O)Nc1cccc(C2CCN(CCCNC(=O)C(c3ccccc3)c3ccccc3)CC2)n1 [Example 6] | F | 5.6 | 
CC(C)C(=O)Nc1cccc(C2CCN(CCCNC(=O)C(C)(C)c3ccc(Cl)cc3)CC2)c1 [Example 8, 2-(4-CHLOROPHENYL)-N-(3-{4-[3-(ISOBUTYRYLAMINO)PHENYL]-1-PIPERIDINYL} PROPYL)-2-METHYLPROPANAMIDE] | F | 11.7 | 
Cc1ccc(NC(=O)C(C)C)cc1C1CCN(CCCNC(=O)C(c2ccccc2)c2ccccc2)CC1 [Example 4] | F | 2.5 | 
CC(C)C(=O)Nc1cccc(C2CCN(CCCNC(=O)C(c3ccc(F)cc3)c3ccc(F)cc3)CC2)n1 [Example 29] | F | 2.3 | 
CN(C)CC1CCc2cc(NC(=O)c3ccc(-c4ccc(F)cc4)cc3)ccc2C1 (stereo not drawn) [Example T-226296] |  |  | inhibit food intake
CC(C)C(=O)Nc1cccc(C2CCN(CCCNC(=O)C(c3ccc(F)cc3)c3ccc(F)cc3)CC2)c1 [Example 1, N-{3-[1-(3-{[BIS(4-FLUOROPHENYL)ACETYL]AMINO}PROPYL)-4-PIPERIDINYL] PHENYL}-2-METHYLPROPANAMIDE] | F | 1.3 | 
CC(=O)Nc1cccc(C2CCN(CCCNC(=O)C(c3ccccc3)c3ccccc3)CC2)c1 [Example 3, N-(3-{4-[3-(acetylamino)phenyl]-piperidinyl}propyl)-2,2-diphenylacetamide] | F | 2.5 | 
CC(C)C(=O)Nc1ccc(F)c(C2CCN(CCCNC(=O)C(c3ccc(F)cc3)c3ccc(F)cc3)CC2)c1 [Example 35, N-{3-[1-(3-{[bis(4-fluorophenyl)acetyl]amino}propyl)-4-piperidinyl]-4-fluorophenyl}-2-methylpropanamide] | F | 0.4 | 
Cc1ccc(NC(=O)C(C)C)cc1C1CCN(CCCNC(=O)C(c2ccc(F)cc2)c2ccc(F)cc2)CC1 [Example 32] | F | 0.6 | 
CC(C)C(=O)Nc1ccc(F)c(C2CCN(CCCNC(=O)C(c3ccccc3)c3ccccc3)CC2)c1 [Example 24] | F | 4.7 | 
CC(C)C(=O)Nc1cc(C2CCN(CCCNC(=O)C(c3ccc(F)cc3)c3ccc(F)cc3)CC2)c(F)cc1F [Example 165, N-{5-[1-(3-{[bis(4-fluorophenyl)acetyl]amino}propyl)-4-piperidinyl]-2,4-difluorophenyl}-2-methylpropanamide] |  | 1.1 | 
Cc1ccc(C(C(=O)NCCCN2CCC(c3cccc(NC(=O)C4CC4)c3)CC2)c2ccc(C)cc2)cc1 [Example 111, N-{3-[1-(3-{[2,2-BIS(4-METHYLPHENYL)ACETYL]AMINO}PROPYL)-4-PIPERIDINYL] PHENYL}CYCLOPROPANECARBOXAMIDE] |  | 1.2 | 
Cc1ccc(NC(=O)C(C)C)cc1C1CCN(CCCNC(=O)C(O)c2ccc(F)c(F)c2)CC1 (stereo not drawn) [Example 153, N-{3-[1-(3-{[(3,4-difluorophenyl)(hydroxy)acetyl]amino}propyl)-4-piperdinyl]-4-methylphenyl}-2-methylpropanamide] |  | 20.3 | 
Cc1ccc(C(C(=O)NCCCN2CCC(c3cccc(NC(=O)C(C)C)c3)CC2)c2ccc(C)cc2)cc1 [Example 34, N-{3-[1-(3-{[BIS(4-METHYLPHENYL)ACETYL]AMINO}PROPYL)-4-PIPERIDINYL] PHENYL}-2-METHYLPROPANAMIDE] |  | 2.3 | 
CC(C)C(=O)Nc1cccc(C2CCN(CCCNC(=O)C(C)c3ccc(F)cc3)CC2)c1 (stereo not drawn) [Example 42, 2-(4-FLUOROPHENYL)-N-(3-{4-[3-(ISOBUTYRYLAMINO)PHENYL]-1-PIPERIDINYL} PROPYL)PROPANAMIDE] |  | 34.3 | 
O=C(Nc1cccc(C2CCN(CCCNC(=O)C(c3ccc(Cl)cc3)c3ccc(Cl)cc3)CC2)c1)C1CC1 [Example 113, N-{3-[1-(3-{[2,2-BIS(4-CHLOROPHENYL)ACETYL]AMINO}PROPYL)-4-PIPERIDINYL] PHENYL}CYCLOPROPANECARBOXAMIDE] |  | 0.8 | 
CC(C)C(=O)Nc1cccc(C2CCN(CCCNC(=O)C3(c4ccc(Cl)cc4)CCCCC3)CC2)c1 [Example 45, 1-(4-CHLOROPHENYL)-N-(3-{4-[3-(ISOBUTYRYLAMINO)PHENYL]-1-PIPERIDINYL} PROPYL)CYCLOHEXANECARBOXAMIDE] |  | 4 | 
CC(C)C(=O)Nc1cccc(C2CCN(CCCNC(=O)C3(c4ccc(Cl)cc4)CCCCC3)CC2)n1 [Example 67, 1-(4-CHLOROPHENYL)-N-(3-{4-[6-(ISOBUTYRYLAMINO)-2-PYRIDINYL]-1-PIPERIDINYL} PROPYL)CYCLOHEXANECARBOXAMIDE] |  | 9.9 | 

— patent US20060217418A1, “Substituted alkyl amido piperidines” (priority 2001, published 2006)
